Measured values reported in publication PMC3213642 (The Biochemical journal, 2011).

Key:
[1] = target: FlaI (Sulfolobus acidocaldarius, UniProt Q4J9L0, E336A); test: size-exclusion chromatography and SAXS, hexamerization; format: binding; settings: SAXS: pH 7.0, 200 mM NaCl, 1 mM ATP, 2.5 mM MgCl2, 20 °C
[2] = target: the molecule itself; test: SAXS

## Nc1ncnc2c1ncn2[C@@H]1O[C@H](COP(=O)(O)OP(=O)(O)OP(=O)(O)O)[C@@H](O)[C@H]1O [ATP]
[1]
  size-exclusion chromatography and SAXS, hexamerization: FlaI^E336A with ATP clearly forms a hexameric ring similar to the one determined for GspE

B1: N-terminal His-tagged FlaI^E336A (Walker B mutant) (enzyme, S. acidocaldarius DSM639, UniProt Q4J9L0 1-513, looked up)
chain: MSFVEDYLTKLQERPTIIENPNILKGSKIFNAIYRVDDFVYIHIQSIKSEDGYNQYNVIEPPRPTHDEMEEIEEKFALSIGDKEPPEDTKEKEKLIRSILDKILLRMRLSVPKEYVIYHFIRDKLYTGSLEPLIRDPYIEDISIPGLGHVYIVHKVFGPMRTSIKFENYEELDNLIVSLSEKSYRPVSHNRPVVDASLPDGSRVNFVYGVDISRRGSNLTVRKFSRVPTSITQLIMFGTLSSMMAAYIWTMLDEGMNLFVCGETASGKTTTLNAITAFIPPNLKIVTIEDTPELTVPHSNWVAEVTRETGGEGTIKLFDLLKAALRQRPNYILVGAIRDKEGNVAFQAMQTGHSVMATFHAANITTLIQRLTGYPIEVPKSYINNLNIALFQTALYDKKGNLIRRVVEVDEIIDIDPVTNDVVYIPAFTYDSVQDKMLFAGKGSSYLIENKIAVKRGIDRRNIGLLYDELQMRSRFLNLLVEKKIFNYYDVWDYILRARQMGLEEAIKYVSNI
[2]
  stoichiometry N: 6
